Test results as given in patent US10570141B2, “Substituted pyrrolopyrimidine CDK inhibitor, pharmaceutical composition containing same and use thereof” (CHIA TAI TIANQING PHARMACEUTICAL GROUP CO., LTD., priority 2016, dated 2020).
Where a name gives a salt, the structure may show the parent alone. Read-outs that look alike come from different tables or passages of the source.

Key:
[1] = Pharmacokinetics evaluation in rats after intragastric administration; conditions: male, rat, plasma, po, 5 mg/kg
Method: (§4) 3 Healthy adult male rats were used for each tested compound. The tested compound was suspended in 20% sulfobutyl ether-β-cyclodextrin at a concentration of 1 mg/mL, and then was intragastrically administered at a single dose of 5 mg/kg (administered volume: 5 mL/kg). The animals to be intragastrically administered were fasted overnight prior to the experiment, i.e., fasted from 10 h prior to the administration to 4 h after the administration, and blood samples were collected in 0.25, 0.5, 1, 2, 4, 6, 8 and 24 h after the intragastric administration. About 0.3 mL of whole blood was collected from the orbital venous plexus, and put in a heparin anticoagulant tube. The sample was centrifuged at 4° C. at 4000 rpm for 5 min. The plasma was transferred to a centrifuge tube, and kept at −80° C. until analysis. Concentration of the tested compound in the plasma sample was analyzed using non-validated liquid chromatography-tandem mass spectrometry (LC-MS/MS). Plasma concentration-time data of individual animals were analyzed using WinNonlin (Professional Edition, Version 6.3; Pharsight Corporation) software. A non-compartment model was used for concentration analysis.

[2] = target: CDK6/CyclinD3 (Homo sapiens (Human), UniProt Q00534); test: In vitro kinase activity inhibition assay of CDK6/CyclinD3 (LANCE method); type: biochemical; conditions: recombinant CDK6/CyclinD3 4 nM, ATP 200 μM, 1 h room temperature
Sequence of CDK6/CyclinD3 (Q00534 whole entry): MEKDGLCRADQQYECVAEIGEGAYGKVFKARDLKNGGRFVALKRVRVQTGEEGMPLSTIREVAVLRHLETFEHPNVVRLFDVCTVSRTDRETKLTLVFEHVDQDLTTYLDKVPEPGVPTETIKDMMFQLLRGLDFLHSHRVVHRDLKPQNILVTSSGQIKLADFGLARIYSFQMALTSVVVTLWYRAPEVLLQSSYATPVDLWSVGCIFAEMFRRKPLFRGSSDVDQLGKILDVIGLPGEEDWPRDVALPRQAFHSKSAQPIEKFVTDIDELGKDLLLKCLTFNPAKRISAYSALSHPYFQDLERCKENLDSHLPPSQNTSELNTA
Sequence of CDK6/CyclinD3 (P30281 whole entry partner): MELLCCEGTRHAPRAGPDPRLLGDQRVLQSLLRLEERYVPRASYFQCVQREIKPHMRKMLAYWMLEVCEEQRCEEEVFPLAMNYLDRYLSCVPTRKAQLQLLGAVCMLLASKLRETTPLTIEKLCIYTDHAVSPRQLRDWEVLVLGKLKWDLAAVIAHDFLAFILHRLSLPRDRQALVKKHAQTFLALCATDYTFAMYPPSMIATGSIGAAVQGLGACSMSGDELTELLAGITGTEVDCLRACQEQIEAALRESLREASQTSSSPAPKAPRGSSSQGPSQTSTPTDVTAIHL
From the text: (§1) A method for in vitro kinase activity inhibition assay of CDK4/CyclinD3 and CDK6/CyclinD3 is established as follows:
(§2) LANCE method of PerkinElmer Inc. was used in the assay, and recombinant CDK4/CyclinD3 (Item No.: 04-105) and CDK6/CyclinD3 (Item No.: 04-107) kinases were purchased from Cama Biosciences, Inc. Substrate ULight-MBP (Item No.: TRF0109) and Eu-labeled anti-MBP antibody (Item No.: TRF0201) were purchased from PerkinElmer. HEPES PH7.5 (Item No.: #15630080), DTT (Item No.: # D1532), MgCl2 (Item No.: # AM9530G), EGTA (Item No.: # E1219), and EDTA (Item No.: # AM9260G) were purchased from Life Technology. Firstly, a 1× buffer solution A (50 mM HEPES, PH 7.5, 10 mM MgCl2, 1 mM EGTA, 0.01% Tween 20 and 2 mM DTT) was prepared. A compound to be tested was dissolved in DMSO to 1 mM, serially diluted with DMSO, and then diluted 25-fold with the buffer solution A (final concentration of DMSO: 1%). CDK4/CyclinD3 and CDK6/CyclinD3 were diluted respectively with the buffer solution A. Finally, the buffer solution A was used to prepare the substrate and ATP. 4 μl of CDK4/CyclinD3 (final concentration: 2 nM) or CDK6/CyclinD3 (final concentration: 4 nM), 2 μl of the diluted compound, and 4 μl of a mixture of the substrate (final concentration: 50 nM) and ATP (final concentration: 200 μM) were added to reaction wells, and the resulting mixture was kept at room temperature to react for 1 h. Then, an EDTA solution was added to terminate the reaction, and Eu-labeled anti-MBP antibody was added and the resulting mixture was incubated at room temperature for additional 1 h. EnVision was used to read fluorescent signals (excitation wavelength: […], emission wavelength: […]).

[3] = test system: Colo-205 cells; test: Inhibition of proliferation of colon cancer cell line Colo-205 (Cell-Titer Glo); type: cell-based, human; conditions: 72 hours incubation, cell viability, read-out: IC50(Colo205)
Method: (§3) Colo-205 (Crown Bioscience Inc.) and MCF7 (Beijing Jinzijing Biology Medicine Technology Co., Ltd.) cells were inoculated into a 96-well plate (Corning, Item No.: 3599) at a density of 1000 cells/well, and incubated overnight. A compound at different concentrations (10000 nM, 3000 nM, 1000 nM, 300 nM, 100 nM, 30 nM, 10 nM, 3 nM, 1 nM, 0.3 nM, 0 nM, final concentration of DMSO: 0.1%) was added on the next day, and the incubation was continued for additional 72 hours. The culture medium was sucked with a vacuum pump, 50 ul of Cell-Titer Glo reagent (Promega, Item No.: G7572) was added to each well, and shaken for 10 min. Chemiluminescent signals were collected by EnVision® Multilabel Reader (PerkinElmer Inc.) to detect the cell viability and calculate the half maximal inhibitory concentration of the compound for inhibiting cell proliferation.

[4] = target: CDK4/CyclinD3 (Homo sapiens (Human), UniProt P11802); test: In vitro kinase activity inhibition assay of CDK4/CyclinD3 (LANCE method); type: biochemical; conditions: recombinant CDK4/CyclinD3 2 nM, ATP 200 μM, 1 h room temperature
Sequence of CDK4/CyclinD3 (P11802 whole entry): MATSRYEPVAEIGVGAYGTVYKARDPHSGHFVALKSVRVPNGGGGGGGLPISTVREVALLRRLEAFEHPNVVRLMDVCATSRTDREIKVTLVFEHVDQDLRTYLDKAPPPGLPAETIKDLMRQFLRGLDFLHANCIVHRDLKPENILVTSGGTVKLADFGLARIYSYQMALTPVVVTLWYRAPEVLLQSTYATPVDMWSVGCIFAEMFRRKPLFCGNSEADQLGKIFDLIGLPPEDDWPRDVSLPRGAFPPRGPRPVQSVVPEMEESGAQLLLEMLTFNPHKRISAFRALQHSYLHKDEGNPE
Sequence of CDK4/CyclinD3 (P30281 whole entry partner): as the sequence (P30281 whole entry partner) above
From the text: as §1, §2

[5] = test system: MCF7 cells; test: Inhibition of proliferation of breast cancer cell line MCF7 (Cell-Titer Glo); type: cell-based, human; conditions: 72 hours incubation, cell viability
Method: as §3

[6] = rat, in vivo, po, 5 mg/kg
Method: as §4

| Compound | IC50 [2] [nM] | IC50 [4] [nM] | AUC(0-inf) [1] [ng·h/mL] | Cmax [1] [ng/mL] | Tmax [1] [h] | half-life [1] [h] | IC50 ([3]; Homo sapiens) [nM] | IC50 ([5]; Homo sapiens) [nM] | further results |
| --- | --- | --- | --- | --- | --- | --- | --- | --- | --- |
| CS(=O)(=O)c1cc2cnc(Nc3ccc(C4=CCNCC4)cn3)nc2n1C1CCCC1.Cl [Example 4, 7-cyclopentyl-6-methylsulfonyl-N-(5-(1,2,3,6-4H-pyridin-4-yl)pyridin-2-yl)-7H-pyrrolo[2,3-d]pyrimidin-2-amine hydrochloride] | 11.1 | 2.57 | 889 | 90 | 3 | 3.28 | 312 | 175 |  |
| CN(C)C(=O)c1cc2cnc(Nc3ccc(N4CCNCC4)cn3)nc2n1C1CCCC1.Cl [Comparative Example 1, 7-cyclopentyl-2-(5-(piperazin-1-yl-pyridin-2-ylamino)-7H-pyrrolo[2,3-d]pyrimidine-6-carboxylic acid dimethylamide (ribociclib) hydrochloride] |  |  |  |  |  |  |  |  | IC50 [3]: 2690 nM; IC50 [5]: 326 nM |
| CS(=O)(=O)c1cc2cnc(Nc3ccc(N4CCNCC4)cn3)nc2n1C1CCCC1 [Example 1, 7-cyclopentyl-6-methylsulfonyl-N-(5-(piperazin-1-yl)pyridin-2-yl)-7H-pyrrolo[2,3-d]pyrimidin-2-amine hydrochloride] | 5.7 | 0.8 | 1960 | 255 | 1.33 | 7.23 | 271 | 114 |  |
| CN(C)C(=O)c1cc2cnc(Nc3ccc(N4CCNCC4)cn3)nc2n1C1CCCC1.Cl [Comparative Example 1] |  |  |  |  |  |  |  |  | AUC(0-inf) [6]: 120 ng·h/mL; Cmax [6]: 15.8 ng/mL; T1/2 [6]: 4.25 h; Tmax [6]: 2.67 h |
| CN(C)C(=O)c1cc2cnc(Nc3ccc(C4=CCNCC4)cn3)nc2n1C1CCCC1.Cl [Example 6, 7-cyclopentyl-6-N,N-dimethylcarbamoyl-N-(5-(1,2,3,6-4H-pyridin-4-yl)pyridin-2-yl)-7H-pyrrolo[2,3-d]pyrimidin-2-amine hydrochloride] | 30.6 | 2.37 | 627 | 74.3 | 3.33 | 3.76 | 1260 | 333 |  |

Further lines, with some results ahead:

| IC50 [2] [nM] | IC50 [4] [nM] | Compound | AUC(0-inf) [1] [ng·h/mL] | Cmax [1] [ng/mL] | Tmax [1] [h] | half-life [1] [h] | IC50 ([3]; Homo sapiens) [nM] | IC50 ([5]; Homo sapiens) [nM] | further results |
| --- | --- | --- | --- | --- | --- | --- | --- | --- | --- |
| 21 | 2.12 | CCS(=O)(=O)c1cc2cnc(Nc3ccc(N4CCNCC4)cn3)nc2n1C1CCCC1 [Example 2, 7-cyclopentyl-6-ethylsulfonyl-N-(5-(piperazin-1-yl)pyridin-2-yl)-7H-pyrrolo[2,3-d]pyrimidin-2-amine hydrochloride] |  |  |  |  |  |  |  |
| 18.7 | 3.4 | CN(C)C1CCN(c2ccc(Nc3ncc4cc(S(C)(=O)=O)n(C5CCCC5)c4n3)nc2)CC1 [Example 3, 7-cyclopentyl-6-methylsulfonyl-N-(5-(4-(dimethylamino)piperidin-1-yl)pyridin-2-yl)-7H-pyrrolo[2,3-d]pyrimidin-2-amine hydrochloride] |  |  |  |  |  |  |  |
| 9.85 | 1.46 | CS(=O)(=O)c1cc2cnc(Nc3ccc(C4CCNCC4)cn3)nc2n1C1CCCC1 [Example 5, 7-cyclopentyl-6-methylsulfonyl-N-(5-(piperidin-4-yl)pyridin-2-yl)-7H-pyrrolo[2,3-d]pyrimidin-2-amine hydrochloride] |  |  |  |  | 470 |  |  |
